Experimental findings from patent publication US12539312B2, “Use of materials made of cross-linked β-cyclodextrins for the treatment of tuberculosis” (INSERM (INSTITUT NATIONAL DE LA SANTÉ ET DE LA RECHERCHE …, priority 2019, dated 2026) are described below.

The subject of one data set is Mtb H37Rv. The data set can be described thus: Lung mycobacterial load in Mtb-challenged mice (CFU counting). It is filed as in vivo, Mycobacterium tuberculosis. As to conditions: Booster co-loaded with ETH in pβCD.
In another data set the test system is BMDM. The data set can be described thus: Apoptosis/necrosis assay (Annexin V and DNA intercalating dye). Format: cell-based, murine. The conditions noted are these: 24 hours incubation.
Data set [1] is described as follows: Phase solubility study, ETH. As to conditions: 1:1 stoichiometry assumed, from phase solubility diagram.
A short description of data set [2]: Phase solubility study, Booster. The conditions noted are these: 1:1 stoichiometry assumed; BDM43266 per FIG. 2B.

For the compound `O=C(CCCC(F)(F)F)N1CCC(c2nc(-c3nccs3)no2)CC1` [BDM41906], the “boosting efficacy on ETH” value with Mtb H37Rv is “No difference was observed concerning the boosting efficacy between BDM41906 and BDM43266”. On to `CN[C@@H]1C[C@H]2O[C@@](C)([C@@H]1OC)n1c3ccccc3c3c4c(c5c6ccccc6n2c5c31)C(=O)NC4` [staurosporine], for which the “Annexin V / DNA intercalating dye staining” value with BMDM is listed as “late apoptotic, double positive cells”.

`OC[C@H]1O[C@@H]2O[C@H]3[C@H](O)[C@@H](O)[C@@H](O[C@H]4[C@H](O)[C@@H](O)[C@@H](O[C@H]5[C@H](O)[C@@H](O)[C@@H](O[C@H]6[C@H](O)[C@@H](O)[C@@H](O[C@H]7[C@H](O)[C@@H](O)[C@@H](O[C@H]1[C@H](O)[C@H]2O)O[C@@H]7CO)O[C@@H]6CO)O[C@@H]5CO)O[C@@H]4CO)O[C@@H]3CO` [αCD, α-cyclodextrin]: in data set [1], the “K1:1 (binding constant) in the case of ETH” value was 24. Moreover, the “K1:1 (binding constant) in the case of Booster” value in data set [2] is on record as 100. In the same order, the values of `OC[C@H]1O[C@@H]2O[C@H]3[C@H](O)[C@@H](O)[C@@H](O[C@H]4[C@H](O)[C@@H](O)[C@@H](O[C@H]5[C@H](O)[C@@H](O)[C@@H](O[C@H]6[C@H](O)[C@@H](O)[C@@H](O[C@H]7[C@H](O)[C@@H](O)[C@@H](O[C@H]8[C@H](O)[C@@H](O)[C@@H](O[C@H]1[C@H](O)[C@H]2O)O[C@@H]8CO)O[C@@H]7CO)O[C@@H]6CO)O[C@@H]5CO)O[C@@H]4CO)O[C@@H]3CO` [βCD, β-Cyclodextrin] are 100 and 514. In the same order, the values of `OC[C@H]1O[C@@H]2O[C@H]3[C@H](O)[C@@H](O)[C@@H](O[C@H]4[C@H](O)[C@@H](O)[C@@H](O[C@H]5[C@H](O)[C@@H](O)[C@@H](O[C@H]6[C@H](O)[C@@H](O)[C@@H](O[C@H]7[C@H](O)[C@@H](O)[C@@H](O[C@H]8[C@H](O)[C@@H](O)[C@@H](O[C@H]9[C@H](O)[C@@H](O)[C@@H](O[C@H]1[C@H](O)[C@H]2O)O[C@@H]9CO)O[C@@H]8CO)O[C@@H]7CO)O[C@@H]6CO)O[C@@H]5CO)O[C@@H]4CO)O[C@@H]3CO` [γCD, γ-cyclodextrin] are 47 and 256.
